Test results as given in patent US20240277798A1, “CYCLOSPORINE COMPOSITIONS AND METHODS OF USE” (Bacainn Biotherapeutics, Ltd., priority 2021, published 2024).
“And” between values parts separate entries of the source, which are not always exact repeats. Identical values can stand only once.

Experiments:
[1] = tested on: human neutrophils; assay: PMN transmigration assay (Salmonella typhimurium-infected T84 monolayer, HXA3/MRP2-driven neutrophil migration, MPO readout); format: cell-based
Experimental: PMN transmigration assay. T84 colorectal cancer cells were grown to confluence on the bottom side of 12 well polycarbonate membrane inserts of a 24 well Transwell® plate. The confluent growth of these epithelial cells results in physiologically-relevant apical (luminal) and basolateral surfaces in the transwells. […] The monolayer was then infected on the apical surface with Salmonella typhimurium for 2 hours to induce hepoxilin A3 (HXA3) efflux through the MRP2 membrane protein and into the apical chamber. […] Freshly isolated and prepared human neutrophils were then added to the basolateral side and allowed to transmigrate through the monolayer for 2 hours. The number of neutrophils migrated to the apical chamber (due to the HXA3 gradient) was then assayed by determination of myeloperoxidase activity (a neutrophil biomarker). Inhibition of transmigration is indicated by lower MPO activity in the apical chamber.

[2] = Rat PK, plasma concentrations after oral dosing; format: in vivo, Sprague-Dawley rats
[3] = Amount excreted in feces after oral dosing in rats; format: in vivo, Sprague-Dawley rats; settings: rat, individual animals
[4] = target: T1, FPR1 (Homo sapiens, UniProt P21462); assay: Inhibition of FPR1 measured as inhibition of fMLP-induced neutrophil transmigration across T84 monolayer; format: cell-based; settings: FIG. 3B
T1 construct: endogenous in cells; host or cells: freshly isolated human neutrophils (PMNs), migrating across a T84 epithelial monolayer
T1 sequence (P21462 1-350): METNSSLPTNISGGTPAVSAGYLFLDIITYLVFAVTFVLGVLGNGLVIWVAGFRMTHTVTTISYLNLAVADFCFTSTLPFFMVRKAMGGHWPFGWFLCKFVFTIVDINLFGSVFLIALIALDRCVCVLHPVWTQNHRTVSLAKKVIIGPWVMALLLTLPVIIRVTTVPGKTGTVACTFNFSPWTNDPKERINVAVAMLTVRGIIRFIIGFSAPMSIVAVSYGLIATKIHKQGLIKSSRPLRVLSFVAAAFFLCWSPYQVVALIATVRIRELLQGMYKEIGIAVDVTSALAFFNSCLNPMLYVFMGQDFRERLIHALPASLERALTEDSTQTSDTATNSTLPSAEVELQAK
Experimental: T84 colorectal cancer cells were grown to confluence on the bottom side of 12 well polycarbonate membrane inserts of a 24 well Transwell® plate. The confluent growth of these epithelial cells results in physiologically-relevant apical (luminal) and basolateral surfaces in the transwells. Freshly isolated and prepared human neutrophils were pretreated in compound (BT051 or cyclosporine A) for 1 hour on ice.
BT051 or cyclosporine A was added to the apical surface of the monolayer. The potent neutrophil chemoattractant, N-formyl-methionyl-leucyl-phenylalanine (fMLP) (100 nM), which activates neutrophil migration via its interaction with the FPR1 protein on neutrophils, was also added to the apical side of the monolayer. The compound-treated neutrophils were then added to the basolateral side and allowed to transmigrate through the monolayer for 2 hours. The number of neutrophils migrated to the apical chamber (due to the fMLP gradient) was then assayed by determination of myeloperoxidase activity (a neutrophil biomarker). Inhibition of transmigration is indicated by lower MPO activity in the apical chamber.
T84 colorectal cancer cells are grown to confluence on the bottom side of 12 well polycarbonate membrane inserts of a 24 well Transwell® plate. The confluent growth of these epithelial cells results in physiologically-relevant apical (luminal) and basolateral surfaces in the transwells. […]

[5] = BT070 10 mg/kg orally, rat, individual animals, 10 mg/kg
[6] = BT070 10 mg/kg orally, rat, mean
[7] = BT070 10 mg/kg orally, 0-24 h, 10 mg/kg

SMILES: CC[C@@H]1NC(=O)[C@H]([C@H](O)[C@H](C)CCCCCC(=O)O)N(C)C(=O)[C@H](C(C)C)N(C)C(=O)[C@H](CC(C)C)N(C)C(=O)[C@H](CC(C)C)N(C)C(=O)[C@@H](C)NC(=O)[C@H](C)NC(=O)[C@H](CC(C)C)N(C)C(=O)[C@H](C(C)C)NC(=O)[C@H](CC(C)C)N(C)C(=O)CN(C)C1=O [BT070]
- dose-response of inhibition of neutrophil migration ([1]; FIG. 1, result in words): dose-responsive inhibition
- inhibition of neutrophil migration ([1]; dose of 100 nM, result in words): exhibit inhibition
- plasma concentration ([2]; BT070 10 mg/kg orally, rat, 0.5 h, individual animals, 10 mg/kg): 7472.8 ng/mL and 746.7 ng/mL and 2546.3 ng/mL
- Mean plasma concentration ([2]; BT070 10 mg/kg orally, rat, 0.5 h, mean): 3.5886 µg/mL
- plasma concentration ([2]; BT070 10 mg/kg orally, rat, 1 h, individual animals, 10 mg/kg): 4382.8 ng/mL and 725.2 ng/mL and 1796.5 ng/mL
- Mean plasma concentration ([2]; BT070 10 mg/kg orally, rat, 1 h, mean): 2.3015 µg/mL
- plasma concentration ([2]; BT070 10 mg/kg orally, rat, 2 h, individual animals, 10 mg/kg): 2238.3 ng/mL and 1114.4 ng/mL and 1215.5 ng/mL
- Mean plasma concentration ([2]; BT070 10 mg/kg orally, rat, 2 h, mean): 1.5228 µg/mL
- plasma concentration ([2]; BT070 10 mg/kg orally, rat, 4 h, individual animals, 10 mg/kg): 1178.8 ng/mL and 861.5 ng/mL and 448.5 ng/mL
- Mean plasma concentration ([2]; BT070 10 mg/kg orally, rat, 4 h, mean): 0.8296 µg/mL
- plasma concentration ([2]; BT070 10 mg/kg orally, rat, 6 h, individual animals, 10 mg/kg): 641.5 ng/mL and 543.6 ng/mL and 280.0 ng/mL
- Mean plasma concentration ([2]; BT070 10 mg/kg orally, rat, 6 h, mean): 0.4883 µg/mL
- plasma concentration ([2]; BT070 10 mg/kg orally, rat, 8 h, individual animals, 10 mg/kg): 312.1 ng/mL and 451.6 ng/mL and 118.1 ng/mL
- Mean plasma concentration ([2]; BT070 10 mg/kg orally, rat, 8 h, mean): 0.2939 µg/mL
- plasma concentration ([2]; BT070 10 mg/kg orally, rat, 24 h, individual animals, 10 mg/kg): 12.0 ng/mL and 268.9 ng/mL and 22.8 ng/mL
- Mean plasma concentration ([2]; BT070 10 mg/kg orally, rat, 24 h, mean): 0.1012 µg/mL
- % Extrapolation [2, 5]: 0.3% and 38.42% and 2.46%
- AUCinf [2, 5]: 17616.8 ng/mL*h and 19158.4* ng/mL*h and 7432.0 ng/mL*h
- AUClast [2, 5]: 17.5609 µg·h/mL and 11.7983 µg·h/mL and 7.2495 µg·h/mL
- CL_F [2, 5]: 9.5 mL/min/kg and 8.7* mL/min/kg and 22.43 mL/min/kg
- Cmax [2, 5]: 7.4728 µg/mL and 1.1144 µg/mL and 2.5463 µg/mL
- tmax [2, 5]: 0.50 h (2×) and 2.00 h
- % Extrapolation, Mean [2, 6]: 13.7%
- AUCinf, Mean [2, 6]: 14.7357 µg·h/mL
- AUClast, Mean [2, 6]: 12.2029 µg·h/mL
- CL_F, Mean [2, 6]: 0.81 L/h/kg
- Cmax, Mean [2, 6]: 3.7112 µg/mL
- M.R.T. po, Mean [2, 6]: 10.8 h
- tmax, Mean [2, 6]: 1.0 h
- plasma concentration ([2]; BT070 as breakdown product after BT051 10 mg/kg orally, rat, 0.5 h, individual animals): 3.3 ng/mL and NQ (Not quantifiable. No peak or below limit of quantification (LOQ = 2.5 ng/mL)) (4×)
- Mean plasma concentration ([2]; BT070 as breakdown product after BT051 10 mg/kg orally, rat, 0.5 h, mean): 0.0033 µg/mL
- plasma concentration ([2]; BT070 as breakdown product after BT051 10 mg/kg orally, rat, 1 h, individual animals): NQ (Not quantifiable. No peak or below limit of quantification (LOQ = 2.5 ng/mL))
- plasma concentration ([2]; BT070 as breakdown product after BT051 10 mg/kg orally, rat, 2 h, individual animals): NQ (Not quantifiable. No peak or below limit of quantification (LOQ = 2.5 ng/mL))
- plasma concentration ([2]; BT070 as breakdown product after BT051 10 mg/kg orally, rat, 4 h, individual animals): NQ (Not quantifiable. No peak or below limit of quantification (LOQ = 2.5 ng/mL))
- plasma concentration ([2]; BT070 as breakdown product after BT051 10 mg/kg orally, rat, 6 h, individual animals): NQ (Not quantifiable. No peak or below limit of quantification (LOQ = 2.5 ng/mL))
- plasma concentration ([2]; BT070 as breakdown product after BT051 10 mg/kg orally, rat, 8 h, individual animals): NQ (Not quantifiable. No peak or below limit of quantification (LOQ = 2.5 ng/mL))
- plasma concentration ([2]; BT070 as breakdown product after BT051 10 mg/kg orally, rat, 24 h, individual animals): NQ (Not quantifiable. No peak or below limit of quantification (LOQ = 2.5 ng/mL))
- Cmax ([2]; BT070 as breakdown product after BT051 10 mg/kg orally, rat, individual animals): 0.0033 µg/mL
- Cmax, Mean ([2]; BT070 as breakdown product after BT051 10 mg/kg orally, rat, mean): 0.0033 µg/mL
- oral bioavailability of the breakdown product ([2]; BT070 following oral administration of BT051 in rats at 10 mg/kg, result in words): not orally bioavailable
- detectability in plasma ([2]; rats, 10 mg/kg orally, result in words): present in the plasma in all subject rats from 15 minutes to 24 hours
- Amount in feces ([3]; BT070 10 mg/kg orally, 0-4 h): 561.4 ng
- % of dose excreted unchanged in feces [3, 7]: 44.6% and 9.0% and 72.2%
- Total amount excreted unchanged in feces [3, 7]: 1212482.2 ng and 252675.5 ng and 1891835.1 ng
- Amount in feces ([3]; BT070 10 mg/kg orally, 4-8 h, 10 mg/kg): 181805.0 ng and 875239.4 ng
- Amount in feces ([3]; BT070 10 mg/kg orally, 8-24 h, 10 mg/kg): 1030677.2 ng and 252114.1 ng and 1016595.6 ng
- Total amount excreted in feces ([3]; BT070 as breakdown product after BT051 10 mg/kg orally, 0-48 h): 36.9 µg and 33.4 µg and 41.4 µg and 38.5 µg
- Amount in feces ([3]; BT070 as breakdown product after BT051 10 mg/kg orally, 8-24 h): 31200 ng and 14300 ng and 10600 ng and 34800 ng
- Amount in feces ([3]; BT070 as breakdown product after BT051 10 mg/kg orally, 24-48 h): 5700 ng and 19100 ng and 30800 ng and 3700 ng
- inhibition of PMN transmigration/activation ([4]; concentration not given): approximately 50%
- fMLP-mediated PMN transmigration/activation ([4]; result in words): inhibit
